Values joined by “and” are separate entries in the source; they are usually repeats but may differ in a detail not shown here. Equal entries are not always repeated. Each block holds one compound with its values, some of them ahead of it.
Experiments:
[1] = molecular target: T1, BCL2/BID (Homo sapiens, UniProt P10415); experiment: Binding affinity to Bcl-2/Bid (unknown origin) by fluorescence polarization assay; assay type: protein assay
[2] = molecular target: T2, Bcl-xL/BH3-interacting domain death agonist (Homo sapiens, UniProt Q07817); experiment: Binding affinity to Bcl-xL/Bid (unknown origin) by fluorescence polarization assay; assay type: protein assay
[3] = molecular target: T3, Induced myeloid leukemia cell differentiation protein Mcl-1/BH3-interacting domain death agonist (Homo sapiens, UniProt Q07820); experiment: Binding affinity to Mcl-1/Bid (unknown origin) by fluorescence polarization assay; assay type: protein assay
[4] = molecular target: T4, Induced myeloid leukemia cell differentiation protein Mcl-1 (Homo sapiens, UniProt Q07820); experiment: Binding affinity to Mcl-1 (unknown origin) assessed as inhibition constant by fluorescence polarization assay
[5] = molecular target: Apoptosis regulator Bcl-2/Bcl-2 homologous antagonist/killer (Homo sapiens, UniProt P10415+Q16611); experiment: Inhibition of Bcl-2/Bak (unknown origin); assay type: protein assay
[6] = molecular target: T5, BCL2A1/BAK1 (Homo sapiens, UniProt Q16548+Q16611); experiment: Inhibition of Bfl-1/Bak (unknown origin); assay type: protein assay
T5 sequence (Q16611 whole entry): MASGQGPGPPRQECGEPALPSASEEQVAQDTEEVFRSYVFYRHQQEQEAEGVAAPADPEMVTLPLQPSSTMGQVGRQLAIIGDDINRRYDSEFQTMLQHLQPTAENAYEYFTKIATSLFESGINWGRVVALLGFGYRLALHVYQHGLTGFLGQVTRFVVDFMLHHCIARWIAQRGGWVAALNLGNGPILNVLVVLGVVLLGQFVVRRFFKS
T5 sequence (Q16548 whole entry): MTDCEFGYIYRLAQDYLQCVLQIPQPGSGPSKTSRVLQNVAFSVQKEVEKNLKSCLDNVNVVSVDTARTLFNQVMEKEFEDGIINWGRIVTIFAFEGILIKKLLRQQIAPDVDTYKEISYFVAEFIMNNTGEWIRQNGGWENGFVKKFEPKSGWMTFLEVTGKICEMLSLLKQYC

[7] = Inhibition of Mcl-1 (172 - 327 residues)/Noxa (unknown origin) by fluorescence polarization assay; parameters: species or system Homo sapiens
[8] = molecular target: T6, Induced myeloid leukemia cell differentiation protein Mcl-1/Bcl-2-like protein 11 (Homo sapiens, UniProt Q07820); experiment: Inhibition of Mcl-1/Bim (unknown origin) by ELISA method; assay type: protein assay
[9] = molecular target: BCL2/BCL2L11 (Homo sapiens, UniProt P10415); experiment: Inhibition of Bcl-2/Bim (unknown origin) by ELISA method; assay type: protein assay
[10] = molecular target: T4, Induced myeloid leukemia cell differentiation protein Mcl-1; experiment: Binding affinity to wildtype Mcl-1 (unknown origin) assessed as dissociation constant by SPR analysis
[11] = Binding affinity to Mcl-1 H224A (unknown origin) assessed as dissociation constant by SPR analysis; parameters: species or system Homo sapiens
[12] = tested on: HeLa; experiment: Cytotoxicity against human HeLa cells; assay type: functional, cell-based
[13] = tested on: K562; experiment: Cytotoxicity against human K562 cells; assay type: functional, cell-based
[14] = molecular target: T3, Induced myeloid leukemia cell differentiation protein Mcl-1/BH3-interacting domain death agonist; experiment: Binding affinity to Mcl-1/Bid (unknown origin) assessed as inhibition constant by fluorescence polarization assay; assay type: protein assay
[15] = molecular target: T7, Bcl-xL/Bcl-2-like protein 11 (Homo sapiens, UniProt Q07817); experiment: Binding affinity to Bcl-xL/Bim (unknown origin) assessed as inhibition constant by fluorescence polarization assay; assay type: protein assay
[16] = molecular target: T1, BCL2/BID; experiment: Binding affinity to Bcl-2 /Bid (unknown origin) assessed as inhibition constant by fluorescence polarization assay; assay type: protein assay
[17] = molecular target: T8, BCL2L2/BID (Homo sapiens, UniProt P55957+Q92843); experiment: Binding affinity to Bcl-W/Bid (unknown origin) by fluorescence polarization assay; assay type: protein assay
T8 sequence (Q92843 whole entry): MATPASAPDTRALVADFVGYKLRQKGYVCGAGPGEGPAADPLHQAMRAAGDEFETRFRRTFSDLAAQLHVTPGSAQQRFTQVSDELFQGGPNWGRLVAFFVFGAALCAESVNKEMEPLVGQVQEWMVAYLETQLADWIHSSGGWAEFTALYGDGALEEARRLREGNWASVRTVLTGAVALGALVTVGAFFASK
T8 sequence (P55957 whole entry): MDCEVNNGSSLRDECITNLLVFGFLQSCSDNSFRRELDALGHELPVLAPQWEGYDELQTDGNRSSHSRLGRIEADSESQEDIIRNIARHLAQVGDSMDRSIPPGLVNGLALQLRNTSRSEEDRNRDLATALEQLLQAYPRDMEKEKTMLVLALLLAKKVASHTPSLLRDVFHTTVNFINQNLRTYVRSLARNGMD

[18] = molecular target: T7, Bcl-xL/Bcl-2-like protein 11; experiment: Inhibition of GST-tagged Bcl-xL/Bim (unknown origin) incubated for 15 mins followed by Bim addition measured after 2 hrs by ELISA method; assay type: protein assay
[19] = molecular target: T6, Induced myeloid leukemia cell differentiation protein Mcl-1/Bcl-2-like protein 11; experiment: Inhibition of GST-tagged Mcl-1/Bim (unknown origin) incubated for 15 mins followed by Bim addition measured after 2 hrs by ELISA method; assay type: protein assay
[20] = molecular target: T3, Induced myeloid leukemia cell differentiation protein Mcl-1/BH3-interacting domain death agonist; experiment: Inhibition of Mcl-1/Bid (unknown origin) by fluorescence polarization assay; assay type: protein assay
[21] = molecular target: T2, Bcl-xL/BH3-interacting domain death agonist; experiment: Inhibition of Bcl-xL/Bid (unknown origin) by fluorescence polarization assay; assay type: protein assay
[22] = molecular target: T7, Bcl-xL/Bcl-2-like protein 11; experiment: Inhibition of Bcl-xL/Bim (unknown origin) by ELISA method; assay type: protein assay
[23] = molecular target: MCL1-BAK1 complex (Homo sapiens, UniProt Q07820); experiment: Binding affinity to Mcl-1/Bak (unknown origin) assessed as inhibition constant by fluorescence polarization assay; assay type: protein-complex assay
[24] = Cytotoxicity against human MOLP8 cells by caspase-3/7 activation; assay type: functional, cell-based; conditions: MOLP-8
[25] = molecular target: Bcl-xL/BAK (Homo sapiens, UniProt Q07817); experiment: Binding affinity to Bcl-xL/Bak (unknown origin) assessed as dissociation constant by ITC method; assay type: protein assay
Chain of Bcl-xL/BAK (Q07817 whole entry, one chain of several): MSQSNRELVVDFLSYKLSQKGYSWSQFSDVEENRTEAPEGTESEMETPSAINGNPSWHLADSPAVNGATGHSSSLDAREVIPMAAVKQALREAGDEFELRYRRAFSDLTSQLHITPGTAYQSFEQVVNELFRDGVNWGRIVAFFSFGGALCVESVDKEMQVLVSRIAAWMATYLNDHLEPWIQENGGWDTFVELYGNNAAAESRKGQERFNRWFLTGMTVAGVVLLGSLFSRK

T4 sequence (Q07820 whole entry): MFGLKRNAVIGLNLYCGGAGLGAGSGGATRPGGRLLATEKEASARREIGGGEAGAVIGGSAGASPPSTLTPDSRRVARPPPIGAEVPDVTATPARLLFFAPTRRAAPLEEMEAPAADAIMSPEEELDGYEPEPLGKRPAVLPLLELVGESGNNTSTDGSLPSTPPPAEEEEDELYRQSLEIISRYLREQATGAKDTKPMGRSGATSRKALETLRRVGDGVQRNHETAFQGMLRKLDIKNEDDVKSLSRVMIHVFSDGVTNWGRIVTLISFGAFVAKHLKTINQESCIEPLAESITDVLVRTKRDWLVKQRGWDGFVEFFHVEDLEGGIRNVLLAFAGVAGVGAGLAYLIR
T6 sequence (Q07820 whole entry): as above
T6 sequence (O43521 whole entry, further chain): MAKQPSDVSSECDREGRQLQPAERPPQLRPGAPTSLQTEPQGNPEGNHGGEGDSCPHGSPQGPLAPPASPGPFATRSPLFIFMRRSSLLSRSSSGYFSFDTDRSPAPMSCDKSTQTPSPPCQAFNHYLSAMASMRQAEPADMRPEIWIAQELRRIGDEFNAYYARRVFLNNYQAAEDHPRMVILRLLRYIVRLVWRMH
T3 sequence (Q07820 whole entry, one chain of several, the tested form may be a part): as the sequence (Q07820 whole entry) above
T7 sequence (Q07817 whole entry): as the sequence (Q07817 whole entry, one chain of several) above
T7 sequence (O43521 whole entry, further chain): as the sequence (O43521 whole entry, further chain) above
T2 sequence (Q07817 whole entry, one chain of several, the tested form may be a part): as the sequence (Q07817 whole entry, one chain of several) above
T1 sequence (P10415 whole entry, one chain of several, the tested form may be a part): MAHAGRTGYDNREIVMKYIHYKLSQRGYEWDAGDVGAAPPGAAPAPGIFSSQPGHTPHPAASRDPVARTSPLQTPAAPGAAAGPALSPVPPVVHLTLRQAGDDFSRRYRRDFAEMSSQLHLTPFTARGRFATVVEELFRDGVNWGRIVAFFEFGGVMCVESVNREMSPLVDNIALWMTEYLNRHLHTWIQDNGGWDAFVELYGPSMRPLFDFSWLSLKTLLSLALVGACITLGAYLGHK
Chain of BCL2/BCL2L11 (P10415 whole entry): as the sequence (P10415 whole entry, one chain of several, the tested form may be a part) above
Chain of BCL2/BCL2L11 (O43521 whole entry, further chain): as the sequence (O43521 whole entry, further chain) above
Chain of MCL1-BAK1 complex (Q07820 whole entry, one chain of several): as the sequence (Q07820 whole entry) above
Chain of Apoptosis regulator Bcl-2/Bcl-2 homologous antagonist/killer (P10415 whole entry, one chain of several): as the sequence (P10415 whole entry, one chain of several, the tested form may be a part) above

Ki [1]: 1900 nM
Compound: O=C(Cn1nnc(-c2ccccc2Oc2ccc(Cl)cc2Cl)n1)NNC(=S)Nc1ccc([N+](=O)[O-])cc1
Ki [2]: 3500 nM
Ki [3]: 2200 nM

Ki [4]: 200 nM
Compound: CCOC(=O)C1=C(C)N=c2s/c(=C\c3cn(Cc4ccc(-c5ccccc5)cc4)c4ccccc34)c(=O)n2C1c1ccccc1 (centres undefined)

Compound: CC1=C(C2=C(C)C(=O)c3c(cc(O)c(O)c3Cc3ccccc3)C2=O)C(=O)c2cc(O)c(O)c(Cc3ccccc3)c2C1=O
IC50 [5]: 31000 nM
IC50 [6]: 25000 nM

IC50 [7]: 30 nM
Compound: Cc1ccc(-c2ccc(C(=O)O)c(NS(=O)(=O)c3ccc(OCCn4cccn4)cc3)c2)c2ccccc12

IC50 [8]: 780 nM
IC50 [9]: 540 nM
Compound: N#CC1=C(NCCC(=O)CCCCC(=O)NCCCCCNc2cccc3c2C(=O)N(C2CCC(=O)NC2=O)C3=O)c2ccc(Sc3ccc(Br)cc3)c3cccc(c23)C1=O (centres undefined)

Kd [10]: 150 nM
Kd [11]: 130 nM
IC50 [8]: 150 nM
IC50 [9]: 430 nM
Compound: O=C1CCC(N2C(=O)c3cccc4c(Sc5ccc(Br)cc5)ccc(c34)C2=O)C(=O)N1 (centres undefined)
IC50 [12]: 10400 nM
IC50 [13]: 7300 nM

Ki [15]: 830 nM
Ki [16]: 1100 nM
Compound: O=C(Nc1ccccc1)C1=CN=c2s/c(=C\c3cn(Cc4ccccc4)c4ccccc34)c(=O)n2[C@@H]1c1ccccc1
Ki [14]: 360 nM

Ki [17]: 37500 nM
Compound: O=C(O)CSc1cc(NS(=O)(=O)c2cccs2)c2ccccc2c1O

IC50 [18]: 1200 nM
IC50 [19]: 1800 nM
Compound: CCOC(=O)CSc1ccc(C(=O)c2[nH]c(Cl)c(Cl)c2-n2cc(Cl)c(Cl)c2C(=O)c2ccc(SCC(=O)OCC)cc2O)c(O)c1

Compound: Cc1cc2c(C(C)C)c(O)c(O)c(C=O)c2c(O)c1-c1c(C)cc2c(C(C)C)c(O)c(O)c(C=O)c2c1O [GOSSYPOL]
IC50 [20]: 1750 nM
IC50 [21]: 3030 nM

Compound: O=C(c1ccccc1O)c1[nH]c(Cl)c(Cl)c1-n1c(C(=O)c2ccccc2O)cc(Cl)c1Cl
IC50 [8]: 12700 nM and 12500 nM
IC50 [22]: 19700 nM and 12000 nM

Ki [4]: 298 nM
Ki [1]: 1200 nM
Compound: O=C(NCCNS(=O)(=O)c1sccc1-c1ccccc1Oc1ccc(O)c(O)c1)Nc1cc(C(F)(F)F)cc(C(F)(F)F)c1
Ki [3]: 330 nM

Ki [23]: 261000 nM
Compound: CC(C)COc1nc(Oc2ccccc2)ccc1C(=O)O

Ki [15]: 1100 nM
Ki [16]: 810 nM
Compound: O=C(Nc1ccccc1)C1=CN=c2s/c(=C\c3cn(Cc4ccccc4)c4ccccc34)c(=O)n2[C@H]1c1ccccc1
Ki [14]: 2200 nM

Ki [1]: 2400 nM
Compound: O=C(Cn1nnnc1-c1ccccc1Oc1ccc(Cl)cc1Cl)NNC(=S)Nc1ccc([N+](=O)[O-])cc1
Ki [2]: 3000 nM
Ki [3]: 2000 nM

Compound: CCc1nn(C)c(CC)c1-c1cccc2c(CCCOc3cccc4ccccc34)c(C(=O)O)n(CCN3CCOCC3)c12
IC50 [24]: 350 nM

Kd [10]: 150 nM
Kd [11]: 1130 nM
IC50 [8]: 510 nM
IC50 [9]: 9460 nM
Compound: O=C(COc1ccc2ccccc2c1)NCCN1C(=O)c2cccc3c(Sc4ccc(Br)cc4)ccc(c23)C1=O
IC50 [12]: 43200 nM
IC50 [13]: 10100 nM

IC50 [7]: 60 nM
Compound: Cc1ccc(-c2ccc(C(=O)O)c(NS(=O)(=O)c3ccc(OCCCN4CCOCC4)cc3)c2)c2ccccc12

Ki [23]: 6900 nM
Kd [25]: 3400 nM
Compound: COc1cccc(-c2ccc(/C=C3\SC(=S)N([C@@H](Cc4ccccc4)C(=O)O)C3=O)cn2)c1OC

Ki [15]: 280 nM
Ki [16]: 940 nM
Compound: COC(=O)C1=CN=c2s/c(=C\c3cn(Cc4ccccc4)c4ccccc34)c(=O)n2[C@H]1c1ccc(C(C)=O)cc1
Ki [14]: 320 nM

Compound: Cc1c(-c2cccc3c(CCCOc4cccc5ccccc45)c(C(=O)O)[nH]c23)c(COc2ccc(B(O)O)cc2)nn1C
IC50 [24]: > 11000 nM

From ChEMBL document CHEMBL5113375, “Development of Mcl-1 inhibitors for cancer therapy” (Eur J Med Chem, 2021)
